Earlier results in patent US20010034320A1, “NK1-receptor antagonists for treating restless legs syndrome” (priority 2000, published 2001).

System: Restless Legs Syndrome (RLS)
Conditions: for effect on RLS complaint in therapy trials: RLS patients, therapy trials described in the background
[1] = objective polysomnographic measuring parameters, daily doses 0.1-0.9 mg

| Compound | effect on RLS complaint in therapy trials | quality of sleep, frequency of waking or periodic leg movements in sleep (PLMS) [1] | sleep latency [1] | perceived symptoms such as paraesthesia, compulsive movement and tiredness during the day (patient-reported, daily doses 0.1-0.9 mg, 4 open trials, 2 double-blind placebo-controlled trials and a single case study) |
| --- | --- | --- | --- | --- |
| N[C@@H](Cc1ccc(O)c(O)c1)C(=O)O [L-dopa, levodopa] | significant alleviation of the complaint | – | – | – |
| Clc1cccc(Cl)c1NC1=NCCN1 [clonidine, 2-(2,6-dichloroanilino)-4,5-dihydroimidazole] | – | not affected | shortened | (statistically significant) reduction |
| NC(=O)N1c2ccccc2C=Cc2ccccc21 [Carbamazepine] | only partial relief from the complaint | – | – | – |
